According to PMC8949375, “Design, Green Synthesis and Tailoring of Vitamin E TPGS Augmented Niosomal Nano-Carrier of Pyrazolopyrimidines as Potential Anti-Liver and Breast Cancer Agents with Accentuated Oral Bioavailability” (Pharmaceuticals, 2022):
Like-named read-outs stand apart in the source and are kept apart here.

What was measured:
[1] = system: HepG2 cell line; test: MTT cytotoxicity assay, HepG2; type: cell-based; conditions: Homo sapiens
Text: (§1) The human HCC cell line, HEPG-2, was obtained from the American Type Culture Collection and used to evaluate the effects of the following drugs. MCF-7(ATCC® HTB-22TM, Manassas, VA, USA) breast cancer cells were derived from mammary gland or breast at a metastatic site. […] The human Caco-2 cell line, Caco-2, was obtained from the American Type Culture Collection and used to evaluate the effects of the following drugs. […], Manassas, VA, USA), epithelial-like lung carcinoma, was derived from lung tissue at a metastatic site. The human A549 cell line, A549, was obtained from the American Type Culture Collection and used to evaluate the effects of the following drugs. […] LLC., Burlington, VT, USA). Penicillin/streptomycin (Gibco®, Grand Island, NY, USA) was applied at 100 units/mL and 100 μg/mL, respectively. Growth inhibition was determined by classic MTT assay. In brief, HEPG2, A549, MCF-7 and Caco-2 cells were added to a cell culture MTT assay plate at a concentration of 5 × 10^3 cells/well in 1640 medium and cultured overnight. The different treatments were added on day 1 according to the calculated doses except on the control well and standard, then incubated for 24 h.

[2] = system: MCF-7 cell line; test: MTT cytotoxicity assay, MCF-7; type: cell-based; conditions: Homo sapiens, MCF7, read-out: IC50 MCF-7 Breast Cancer
Text: as §1

[3] = system: CaCo-2 cell line; test: MTT cytotoxicity assay, CaCo-2; type: cell-based; conditions: Homo sapiens, read-out: IC50 CaCo-2 Colon Cancer
Text: (§2) • HepG2 [HEPG2] (ATCC® HB-8065™, Manassas, VA, USA) epithelial hepatocellular carcinoma was derived from the liver tissue of a person (a well-differentiated hepatocellular carcinoma). The human HCC cell line, HEPG-2, was obtained from the American Type Culture Collection and used to evaluate the effects of the following drugs. MCF-7(ATCC® HTB-22™, Manassas, VA, USA) breast cancer cells were derived from mammary gland or breast at a metastatic site. The human MCF-7 cell line, MCF-7, was obtained from the American Type Culture Collection and used to evaluate the effects of the following drugs. • Caco 2 [Caco2] (ATCC® HTB 37™, Manassas, VA, USA) epithelial colorectal adenocarcinoma was derived from the colon at a metastatic site. The human Caco-2 cell line, Caco-2, was obtained from the American Type Culture Collection and used to evaluate the effects of the following drugs. A549 (ATCC® CCL-185™, Manassas, VA, USA), epithelial-like lung carcinoma, was derived from lung tissue at a metastatic site. The human A549 cell line, A549, was obtained from the American Type Culture Collection and used to evaluate the effects of the following drugs.
(§3) HEPG2, A549, MCF-7 and Caco-2 cells were maintained in a monolayer culture in a T-25 flask at 5% CO2 and 37 °C in DMEM (Lonza, Verviers, Belgium) and supplemented with 10% (v/v) FBS (Sigma-Aldrich Co. LLC., Burlington, VT, USA). Penicillin/streptomycin (Gibco®, Grand Island, NY, USA) was applied at 100 units/mL and 100 µg/mL, respectively.
(§4) Growth inhibition was determined by classic MTT assay. In brief, HEPG2, A549, MCF-7 and Caco-2 cells were added to a cell culture MTT assay plate at a concentration of 5 × 10^3 cells/well in 1640 medium and cultured overnight. The different treatments were added on day 1 according to the calculated doses except on the control well and standard, then incubated for 24 h. Measurement was achieved using a microplate reader (Model 550, Bio-Rad, Hercules, CA, USA).

[4] = system: A-549 cell line; test: MTT cytotoxicity assay, A-549; type: cell-based; conditions: Homo sapiens, A549, read-out: IC50 A-549 Lung Carcinoma
Text: as §2, §3, §4

[5] = system: HepG2, MCF-7, A-549 and CaCo-2 cell lines; test: MTT cytotoxicity assay, summary over all tested cell lines; type: cell-based, human; conditions: Homo sapiens; range over compounds and cell lines; read-out: IC50 values versus all tested cell lines (collective range)
Text: as §2, §3, §4

[6] = system: VEGF protein expression level in HepG2 cell line; test: VEGF ELISA in HepG2 cell culture supernatant; type: cell-based, human; parameters: concentration or dose not given beside the values; conditions: compared to control
Description: (§5) Total protein was assayed using the method described by Bradford. The VEGF ELISA Assay Kit (VEGF) and ELISA Kit, (#VGF31-[…]) were purchased from (Eagle Biosciences CO., LTD, Amherst, NH, USA). The kit is a sandwich enzyme immunoassay for the in vitro quantitative determination of VEGF concentrations in cell culture supernates, serum and plasma according to the manufacturer's instructions.

[7] = system: VEGF protein expression level in MCF-7 cell line; test: VEGF ELISA in MCF-7 cell culture supernatant; type: cell-based, human; parameters: concentration or dose not given beside the values; conditions: MCF-7, ELISA, compared to control
Description: as §5

[8] = system: VEGFR-2 protein expression level in HepG2 cell line; test: Human VEGF receptor-2 ELISA in HepG2; type: cell-based; parameters: concentration or dose not given beside the values; conditions: compared to control
Description: (§6) Total protein was assayed using the method described by Bradford. The Human VEGF receptor-2 ELISA Kit (ab213476), (96 tests) was purchased from (abcam®, Waltham, MA, USA). The kit is a sandwich enzyme immunoassay for the in vitro quantitative measurement of human VEGFR-2 in tissue homogenates, cell lysates and other biological fluids according to the manufacturer’s instructions.

[9] = system: VEGFR-2 protein expression level in MCF-7 cell line; test: Human VEGF receptor-2 ELISA in MCF-7; type: cell-based; parameters: concentration or dose not given beside the values; conditions: MCF-7, ELISA, compared to control
Description: as §6

[10] = system: VEGF gene expression level in HepG2 cell line; test: Real-time PCR of VEGF gene expression, HepG2; type: cell-based, human; conditions: HepG2, 3 days of treatment, compared to control, in words
Description: RT-PCR was applied to evaluate the VEGF gene expression level. Briefly, total RNA was extracted, and the extracted total RNA concentration was determined using a NanoDrop 2000 spectrophotometer (Thermo Fisher, Waltham, MA, USA). To determine the relative expression levels, the 2^−ΔΔCT method was used. NCBI/Primer Blast was used to define the primer sequences. The experiments were performed in quadruplicate. The primer sequences of VEGF and β-actin genes are listed below: […]

Cc1ccc(N=Nc2c(N)nn3c(N)c(N=Nc4ccc(S(=O)(=O)N=C(N)N)cc4)c(O)nc23)cc1 [Compound 2a, 4-((2,7-Diamino-5-hydroxy-3-(4-tolyldiazenyl)pyrazolo[1,5-a]pyrimidin-6-yl)diazenyl)-N-(diaminomethylene)benzenesulfonamide] showed an IC50 ([1]; TPGS-coated vs uncoated niosomes vs pure compound, read-out: IC50 Hepg2 Liver Carcinoma) of 6.5 µM, an IC50 ([1]; read-out: IC50 HepG2 Livercarcinoma) of 6.2 µM and an IC50 [2] of 20 µM. For the same compound, the IC50 [3] was 12.5 µM, the IC50 [4] was 10 µM and the IC50 [5] was 6 to 50 µM. For the same compound, the “VEGF 24 h % Inhibition” value ([6]; 24 h) was 38.5%, the “VEGF 72 h % Inhibition” value ([6]; 72 h) was 33.3% and the “VEGF 24 h % Inhibition” value ([7]; 24 h) was 40%. For the same compound, the “VEGF 72 h % Inhibition” value ([7]; 72 h) was 50%, the “VEGFR-2 24 h % Inhibition” value ([8]; 24 h) was 47.4% and the “VEGFR-2 72 h % Inhibition” value ([8]; 72 h) was 38.5%. For the same compound, the “VEGFR-2 24 h % Inhibition” value ([9]; 24 h) was 50%, the “VEGFR-2 72 h % Inhibition” value ([9]; 72 h) was 50% and the “VEGF gene expression level” value [10] was “great inhibition”. It also gave a melting point of 268 to 270 °C.
